Results reported in patent US7846956B2, “Malononitrile compound as pesticides” (Sumitomo Chemical Company, Limited, priority 2004, dated 2010).
Where two headings read alike, the source gives them in different places.

Columns and labels:
Type in all cases: in vivo
Musca domestics = assay: Experimental Example 3: filter paper test with sucrose bait, death rate of Musca domestics; conditions: read-out: death rate of the pest
Method: Preparations of the present compounds (1), (2), (3), (4), (5), (6), (8), (9), (10), (11), (12), (13), (14), (15), (16), (17), (18), (19), (21), (22), (23), (24), (25), (26), (27), (31), (34), (35), (36), (37), (38), (39), (40), (42), (47), (50), (52), (54), (66), (67) and (68) obtained according to Formulation Example 5 were diluted with water so that the active ingredient concentration was 500 ppm to prepare experimental pesticidal solutions.
A filter paper having a diameter of 5.5 cm was spread on the bottom of a polyethylene cup having a diameter of 5.5 cm and 0.7 ml of the experimental pesticidal solution was added dropwise onto the filter paper. As a bait 30 mg of sucrose was uniformly placed on the filter paper. Into the polyethylene cup, 10 female Musca domestics imagoes were released and the cup was sealed with a lid. After 24 hours, the number of surviving Musca domestics was examined and the death rate of the pest was calculated.

Culex pipiens pallens = assay: Experimental Example 5: larvae in treated water, death rate of Culex pipiens pallens; conditions: 24 h, read-out: death rate of the pest
Method: Preparations of the present compounds (1), (2), (4), (5), (6), (8), (9), (11), (12), (13), (14), (15), (16), (17), (18), (19), (21), (22), (23), (24), (25), (26), (27), (31), (33), (34), (35), (36), (37), (38), (39), (40), (42), (43), (47), (48), (50), (52), (53), (54), (62), (64), (65), (66), (67), (68) and (70) obtained according to Formulation Example 5 were diluted with water so that the active ingredient concentration was 500 ppm to prepare experimental pesticidal solutions.
0.7 ml of the experimental pesticidal solution was added to 100 mL of ion-exchanged water (active ingredient concentration: 3.5 ppm). Into the solution, 20 last-instar larvae of Culex pipiens pallens were released. After one day, the surviving number was examined and the death rate of the pest was calculated.

Blattalla germanica = assay: Experimental Example 4: filter paper test with sucrose bait, death rate of Blattalla germanica; conditions: 144 h; 500 ppm active ingredient, 0.7 ml on filter paper; two male imagoes; after 6 days
Method: Preparations of the present compounds (2), (4), (5), (6), (8), (9), (11), (12), (13), (15), (17), (18), (19), (21), (24), (25), (26), (27), (35), (36), (37), (38), (40), (41), (42), (47), (50), (52), (54), (62), (64), (65), (66) and (68) obtained according to Formulation Example 5 were diluted with water so that the active ingredient concentration was 500 ppm to prepare experimental pesticidal solutions.
A filter paper having a diameter of 5.5 cm was spread on the bottom of a polyethylene cup having a diameter of 5.5 cm and 0.7 ml of the experimental pesticidal solution was added dropwise onto the filter paper. As a bait 30 mg of sucrose was uniformly placed on the filter paper. Into the polyethylene cup, two male Blattalla gexmanica images were released and the cup was sealed with a lid. After 6 days, the number of surviving Blattalla germanica was examined and the death rate of the pest was calculated.

[1] = 500 ppm active ingredient, 0.7 ml on filter paper, 10 female imagoes, after 24 hours
[2] = active ingredient concentration 3.5 ppm in water, 20 last-instar larvae, after one day

Row | SMILES | pest or weed control at 500 ppm (Musca domestics; [1]) [%] | pest or weed control at 3.5 ppm (Culex pipiens pallens; [2]) [%] | pest or weed control at 500 ppm (Blattalla germanica) [%] | pest or weed control at 3.5 ppm (Culex pipiens pallens) [%] | pest or weed control at 500 ppm (Musca domestics; 24 h) [%]
1 | CC(C)(C)n1ncc(CC(C#N)(C#N)CCC(F)(F)F)c1-n1cccc1 [present compound (34)] | ≥ 90 | ≥ 95 |  |  | 
2 | CCc1nc(CC(C#N)(C#N)CCC(F)(F)F)no1 [present compound (23)] | ≥ 90 | ≥ 95 |  |  | 
3 | CC(C)(F)c1cc(CC(C#N)(C#N)CCC(F)(F)F)no1 [present compound (54)] | ≥ 90 | ≥ 95 | 100 |  | 
4 | C#CCOC(C)(C)c1cc(CC(C#N)(C#N)CCC(F)(F)F)no1 [present compound (67)] | ≥ 90 | ≥ 95 |  |  | 
5 | CC(c1cc(C(F)(F)F)on1)C(C#N)(C#N)CCC(F)(F)F (centres unmarked) [present compound (36)] | ≥ 90 | ≥ 95 | 100 |  | 
6 | CC(C)(C)c1cc(CC(C#N)(C#N)CCC(F)(F)F)on1 [present compound (4)] | ≥ 90 | ≥ 95 | 100 |  | 
7 | N#CC(C#N)(CCC(F)(F)F)Cc1csc(Cl)n1 [present compound (13)] | ≥ 90 | ≥ 95 | 100 |  | 
8 | CC1(c2nc(CC(C#N)(C#N)CCC(F)(F)F)no2)CC1 [present compound (25)] | ≥ 90 | ≥ 95 | 100 |  | 
9 | C=CC(c1cc(C(C)(C)O)on1)C(C#N)(C#N)CCC(F)(F)F (centres unmarked) [present compound (66)] | ≥ 90 | ≥ 95 | 100 |  | 
10 | CC(C)(C)c1nsc(CC(C#N)(C#N)CCC(F)(F)F)n1 [present compound (21)] | ≥ 90 | ≥ 95 | 100 |  | 
11 | N#CC(C#N)(CCC(F)(F)F)Cc1cc(C(F)F)on1 [present compound (47)] | ≥ 90 | ≥ 95 | 100 |  | 
12 | CC(C)(C)c1nnc(CC(C#N)(C#N)CCC(F)(F)F)o1 [present compound (22)] | ≥ 90 | ≥ 95 |  |  | 
13 | C#CCn1cc(CC(C#N)(C#N)CCC(F)(F)F)cn1 [present compound (31)] | ≥ 90 | ≥ 95 |  |  | 
14 | CC(C)(C)c1cc(CC(C#N)(C#N)CCC(F)(F)F)[nH]n1 [present compound (1)] | ≥ 90 | ≥ 95 |  |  | 
15 | C#CCOc1nc(CC(C#N)(C#N)CCC(F)(F)F)cs1 [present compound (14)] | ≥ 90 | ≥ 95 |  |  | 
16 | Cc1nc(CC(C#N)(C#N)CCC(F)(F)F)cs1 [present compound (11)] | ≥ 90 | ≥ 95 | 100 |  | 
17 | CC(F)(F)c1cc(CC(C#N)(C#N)CCC(F)(F)F)no1 [present compound (52)] | ≥ 90 | ≥ 95 | 100 |  | 
18 | CC(C)C(c1cc(C(C)(C)O)on1)C(C#N)(C#N)CCC(F)(F)F (centres unmarked) [present compound (65)] |  | ≥ 95 | 100 |  | 
19 | CC(C)c1cc(C(C)C(C#N)(C#N)CCC(F)(F)F)no1 (centres unmarked) [present compound (41)] |  |  | 100 |  | 

Row | SMILES | pest or weed control at 500 ppm (Musca domestics; [1]) [%] | pest or weed control at 3.5 ppm (Culex pipiens pallens; [2]) [%] | pest or weed control at 500 ppm (Blattalla germanica) [%] | pest or weed control at 3.5 ppm (Culex pipiens pallens) [%] | pest or weed control at 500 ppm (Musca domestics; 24 h) [%]
20 | CC(C)(C)c1cc(CC(C#N)(C#N)CCC(F)(F)F)n(CC(F)(F)F)n1 [present compound (3)] | ≥ 90 |  |  |  | 
21 | CC(O[Si](C)(C)C(C)(C)C)c1cc(CC(C#N)(C#N)CCC(F)(F)F)no1 (centres unmarked) [present compound (48)] |  |  |  | ≥ 95 | 
22 | N#CC(C#N)(CCC(F)(F)F)Cc1cc(C(F)(F)F)on1 [present compound (35)] | ≥ 90 | ≥ 95 | 100 |  | 
23 | CCc1ncc(CC(C#N)(C#N)CCC(F)(F)F)s1 [present compound (16)] | ≥ 90 | ≥ 95 |  |  | 
24 | CC(C)(O)c1cc(CC(C#N)(C#N)CCC(F)(F)F)no1 [present compound (53)] |  | ≥ 95 |  |  | 
25 | N#CC(C#N)(CCC(F)(F)F)Cc1cnn(Cc2ccccc2)c1 [present compound (8)] | ≥ 90 | ≥ 95 | 100 |  | 
26 | CC(c1cc(C(C)(C)C)on1)C(C#N)(C#N)CCC(F)(F)F (centres unmarked) [present compound (42)] | ≥ 90 | ≥ 95 | 100 |  | 
27 | CC(C)c1cc(CC(C#N)(C#N)CCC(F)(F)F)no1 [present compound (40)] | ≥ 90 | ≥ 95 | 100 |  | 
28 | CC(c1cc(C(C)(C)O)on1)C(C#N)(C#N)CCC(F)(F)F (centres unmarked) [present compound (62)] |  | ≥ 95 | 100 |  | 
29 | Cn1nc(C(C)(C)C)cc1CC(C#N)(C#N)CCC(F)(F)F [present compound (2)] | ≥ 90 | ≥ 95 | 100 |  | 
30 | CC[S+]([O-])c1ncc(CC(C#N)(C#N)CCC(F)(F)F)n1C (centres unmarked) [present compound (70)] |  | ≥ 95 |  |  | 
31 | C#CCOc1ncc(CC(C#N)(C#N)CCC(F)(F)F)s1 [present compound (19)] | ≥ 90 | ≥ 95 | 100 |  | 
32 | Cc1ncc(CC(C#N)(C#N)CCC(F)(F)F)s1 [present compound (15)] | ≥ 90 | ≥ 95 | 100 |  | 
33 | N#CC(C#N)(CCC(F)(F)F)Cc1cscn1 [present compound (10)] | ≥ 90 |  |  |  | 
34 | CC(C)(C)[Si](C)(C)OCc1cc(CC(C#N)(C#N)CCC(F)(F)F)no1 [present compound (43), [(5-(t-butyldimethylsilanyloxymethyl)isoxazol-3-yl)methyl](3,3,3-trifluoropropyl)malononitrile] |  |  |  | ≥ 95 | 
35 | N#CC(C#N)(CCC(F)(F)F)Cc1cc(C(F)(F)C(F)(F)C(F)(F)F)on1 [present compound (39)] |  |  |  | ≥ 95 | ≥ 90
36 | CC(C)(C)n1cc(CC(C#N)(C#N)C2C=CCCC2)cn1 (centres unmarked) [present compound (33)] |  | ≥ 95 |  |  | 
37 | CCC(c1cc(C(C)(C)O)on1)C(C#N)(C#N)CCC(F)(F)F (centres unmarked) [present compound (64)] |  | ≥ 95 | 100 |  | 
